In patent US5952349A, “Muscarinic antagonists for treating memory loss” (Schering Corporation, priority 1997, dated 1999):
Like-named read-outs stand apart in the source and are kept apart here.

Tests used:
m2 muscarinic = conditions: Baumgold et al., Eur. J. of Pharmacol., 251, (1994) 315-317; cited from earlier work
[1] = target: T1, cloned human m4 muscarinic receptor (Homo sapiens, UniProt P08173); test: Muscarinic binding activity: inhibition of 3H-QNB binding, m4 (and m4 selectivity); conditions: for m4 Selectivity Ratio (Ki,m4/Ki,m2): Ki for m4 divided by Ki for m2
T1 construct: expressed in transfected cells; host or cells: CHO cells, stably transfected (membranes)
T1 sequence (P08173 1-479): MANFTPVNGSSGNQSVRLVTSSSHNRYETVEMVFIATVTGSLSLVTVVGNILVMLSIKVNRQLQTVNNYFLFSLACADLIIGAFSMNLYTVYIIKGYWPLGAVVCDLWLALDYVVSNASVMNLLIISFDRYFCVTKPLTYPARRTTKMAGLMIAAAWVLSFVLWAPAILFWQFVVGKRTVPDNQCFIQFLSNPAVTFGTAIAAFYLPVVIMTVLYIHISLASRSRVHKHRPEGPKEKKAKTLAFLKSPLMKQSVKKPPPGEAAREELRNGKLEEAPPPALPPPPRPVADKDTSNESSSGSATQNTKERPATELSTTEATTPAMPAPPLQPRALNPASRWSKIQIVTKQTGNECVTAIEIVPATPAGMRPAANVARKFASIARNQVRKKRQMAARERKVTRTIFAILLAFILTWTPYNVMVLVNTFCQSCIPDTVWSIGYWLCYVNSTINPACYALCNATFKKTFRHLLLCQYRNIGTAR

[2] = target: T2, cloned human m1 muscarinic receptor (Homo sapiens, UniProt P11229); test: Muscarinic binding activity: inhibition of 3H-QNB binding, m1
T2 construct: expressed in transfected cells; host or cells: CHO cells, stably transfected (membranes)
T2 sequence (P11229 1-460): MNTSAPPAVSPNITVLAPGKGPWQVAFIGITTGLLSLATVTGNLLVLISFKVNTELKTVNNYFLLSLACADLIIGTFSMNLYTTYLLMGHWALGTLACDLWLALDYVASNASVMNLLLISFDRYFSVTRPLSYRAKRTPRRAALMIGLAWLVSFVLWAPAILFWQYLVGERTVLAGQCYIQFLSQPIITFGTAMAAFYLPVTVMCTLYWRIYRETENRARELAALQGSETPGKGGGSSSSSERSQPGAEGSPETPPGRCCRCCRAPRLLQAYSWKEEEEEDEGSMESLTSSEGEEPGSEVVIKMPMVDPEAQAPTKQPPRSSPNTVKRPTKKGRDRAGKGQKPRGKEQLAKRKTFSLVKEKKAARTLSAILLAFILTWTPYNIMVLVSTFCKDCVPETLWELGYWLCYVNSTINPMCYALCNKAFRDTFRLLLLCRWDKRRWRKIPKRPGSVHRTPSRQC

[3] = target: T3, cloned human m2 muscarinic receptor (Homo sapiens, UniProt P08172); test: Muscarinic binding activity: inhibition of 3H-QNB binding, m2 (and m2 selectivity); conditions: for m2 Selectivity Ratio (Ki,m1/Ki,m2): Ki for m1 divided by Ki for m2, higher = greater m2 selectivity
T3 construct: expressed in transfected cells; host or cells: CHO cells, stably transfected (membranes)
T3 sequence (P08172 1-466): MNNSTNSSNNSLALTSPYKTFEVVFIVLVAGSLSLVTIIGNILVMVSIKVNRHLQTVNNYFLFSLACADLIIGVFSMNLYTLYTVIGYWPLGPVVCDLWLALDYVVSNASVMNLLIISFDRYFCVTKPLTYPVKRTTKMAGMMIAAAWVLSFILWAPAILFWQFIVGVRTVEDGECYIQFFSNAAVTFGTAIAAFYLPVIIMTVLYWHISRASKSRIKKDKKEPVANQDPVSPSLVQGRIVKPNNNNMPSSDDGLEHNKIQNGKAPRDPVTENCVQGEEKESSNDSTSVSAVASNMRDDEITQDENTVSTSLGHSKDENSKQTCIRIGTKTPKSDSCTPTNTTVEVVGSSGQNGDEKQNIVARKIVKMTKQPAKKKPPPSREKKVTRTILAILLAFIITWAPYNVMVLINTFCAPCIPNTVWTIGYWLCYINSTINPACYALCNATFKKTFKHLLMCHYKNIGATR

[4] = 3H-QNB binding, membranes of transfected CHO cells, 25° C., 90 minutes, pH 7.4, read-out: Ki, m4
[5] = 3H-QNB binding, membranes of transfected CHO cells, 25° C., 90 minutes, pH 7.4, read-out: Ki, m1
[6] = 3H-QNB binding, membranes of transfected CHO cells, 25° C., 90 minutes, pH 7.4, read-out: Ki, m2

SMILES | m2 muscarinic antagonist selectivity (m2 muscarinic) | Ki [1, 4] [nM] | m4 Selectivity Ratio (Ki,m4/Ki,m2) [1] | Ki [2, 5] [nM] | Ki [3, 6] [nM] | m2 Selectivity Ratio (Ki,m1/Ki,m2) [3] | Ki [1] [nM] | Ki [2] [nM] | Ki [3] [nM]
C[C@H]1CC[C@@H]2N(C1)C[C@H]1[C@@H]3C[C@H]4[C@@H](CC(=O)[C@H]5C[C@@H](Cl)CC[C@@]54C)[C@@H]3CC[C@H]1[C@]2(C)O [3-α-chloroimperialine] | highly selective m2 muscarinic antagonist | – | – | – | – | – | – | – | –
N#CN(c1ccc(S(=O)(=O)c2ccc3c(c2)OCO3)cc1)C1CCN(C2CCCCC2)CC1 [Example 2AC] | – | 1.6 | 3.6 | 10 | 0.44 | 22.7 | – | – | –
N#CN(c1ccc(S(=O)(=O)C2CCCCC2)cc1)C1CCN(C2CCCCC2)CC1 [Example 2AK] | – | 25.5 | 1.4 | 232 | 18.8 | 17.2 | – | – | –
CC(=O)Nc1ccc([S+]([O-])c2ccc(N(C#N)C3CCN(C4CCCCC4)CC3)cc2)cc1 (stereo not shown) [Example 2AM] | – | 41.4 | 3.0 | 212 | 13.7 | 15.5 | – | – | –
COc1ccc([S+]([O-])c2ccc(N(C#N)C3CCN(C4CCCCC4)CC3)cc2)cc1 (stereo not shown) [Example 2E] | – | 39.3 | 4.4 | 189 | 9 | 21.0 | – | – | –
COc1ccc(S(=O)(=O)c2ccc(N(C)C3CCN(C4CCCCC4)CC3)cc2)cc1 [Example 2G] | – | – | 3.3 | – | – | 18.8 | 50 | 285 | 15.2
C=CCN(c1ccc(S(=O)(=O)c2ccc(OC)cc2)cc1)C1CCN(C2CCCCC2)CC1 [Example 2I] | – | – | 2.7 | – | – | 12.7 | 10.1 | 47.1 | 3.7
